Data published in ChEMBL document CHEMBL3576800, “Discovery of a Potent and Orally Bioavailable Dual Antagonist of CC Chemokine Receptors 2 and 5” (ACS Med Chem Lett, 2015).

How the values were obtained:
Mus musculus = species on record: Mus musculus; conditions: in vivo, po, 10 mg/kg, 4 h
Liver microsome = conditions: rat, microsomes
Description: Drug metabolism in rat liver microsomes

[1] = AUC in cynomolgus monkey at 1.4 mg/kg, po after 0.25 to 24 hrs by LC/MS/MS method; format: ADME, organism-based, Macaca fascicularis; parameters: time 0.25-24 hr, dose 1.4 mg/kg, route oral; conditions: in vivo
[2] = AUC in Sprague-Dawley rat at 25 mg/kg, po after 0.25 to 24 hrs by LC/MS/MS method; format: ADME, organism-based; parameters: time upper 24 hr, dose 25 mg/kg, time lower 0.25 hr, route oral; conditions: in vivo
[3] = Oral bioavailability in cynomolgus monkey at 1.4 mg/kg after 0.25 to 24 hrs by LC/MS/MS method; format: ADME, organism-based, Macaca fascicularis; conditions: in vivo
[4] = Oral bioavailability in Sprague-Dawley rat at 25 mg/kg after 0.25 to 24 hrs by LC/MS/MS method; format: ADME, organism-based; conditions: in vivo
[5] = Clearance in cynomolgus monkey at 1 mg/kg, iv after 0.25 to 24 hrs by LC/MS/MS method; format: ADME, organism-based, Macaca fascicularis; conditions: in vivo
[6] = Clearance in Sprague-Dawley rat at 2.5 mg/kg, iv after 0.25 to 24 hrs by LC/MS/MS method; format: ADME, organism-based; conditions: in vivo

Row | Structure (SMILES) | AUC/dose (Mus musculus) [µM·h] | Drug metabolism (Liver microsome) [nmol/min/mg] | other results
1 | COC[C@@H]1C[C@H](N(C)C(C)C)CC[C@@H]1NC(=O)CNC(=O)c1cccc(C(F)(F)F)c1 | – | 0.01 | –
2 | CCCC[C@@H]1C[C@H](N(C)C(C)C)CC[C@@H]1NC(=O)CNC(=O)c1cccc(C(F)(F)F)c1 | – | 0.17 | –
3 | CC(C)N(C)[C@@H]1CC[C@H](NC(=O)CNC(=O)c2cccc(C(F)(F)F)c2)[C@H](COc2ccccc2)C1 | – | 0.29 | –

Second part, led by results:

Row | AUC/dose (Mus musculus) [µM·h] | Structure (SMILES) | Drug metabolism (Liver microsome) [nmol/min/mg] | other results
4 | 1.1 | CC(C)N(C)[C@@H]1CC[C@H](NC(=O)CNC(=O)c2cccc(C(F)(F)F)c2)[C@H](CS(=O)(=O)c2ccccc2)C1 | 0.16 | –
5 | 22 | CCC[C@@H]1C[C@H](N(C)C(C)C)CC[C@@H]1N1CC[C@H](Nc2ncnc3ccc(C(F)(F)F)cc23)C1=O | – | AUC [1]: 0.862 µM·h; AUC [2]: 9.29 µM·h; bioavailability [3]: 46%; bioavailability [4]: 68%; clearance [5]: 25 mL/min/kg; clearance [6]: 40 mL/min/kg
